“Also recorded” adds a separate entry of the source.
Key:
[1] = Pharmacokinetic evaluation test using mice; format: in vivo
Protocol: A pharmacokinetic evaluation test was performed by single intravenous administration of Example 4 at a dose of 1.0 mg/kg to mice. A calibration curve was made from measurements of Example 4 with known concentration, and by interpolating measurements of each specimen to this, the amount of the compound contained in unit volume of each plasma was calculated using LC-MS. Pharmacokinetics of compound 14 and hemiasterlin were similarly evaluated.
(n.d. in the tables means less than the detection limit value (0.5 ng/mL).)

[2] = in vitro; details: PAMPA, pH 7.4
Protocol: By the parallel artificial membrane permeability assay (PAMPA), the membrane permeability of compounds of Examples was examined as follows: To the donor plate, System solution (pION inc.) and GIT Lipid-0 (pION inc.) were added in an amount of 200 μL and 4 μL for each well, respectively. To the acceptor plate, Acceptor Sink Buffer (pION inc.) was added in an amount of 200 μL. Both plates were superposed and incubated at 37° C. for 4 hours, and then, UVs in the solutions on the side of acceptor and on the side of donor were measured with an UV plate reader (190 to 500 nm). Compounds with poor UV absorption were measured by LC-MS. The permeability coefficient Pe (10^−6 cm/sec) of the drug was calculated by the following formula.

[3] = target: porcine tubulin (Sus scrofa, UniProt P02550+P02554); test: Activity for inhibiting microtubule polymerization using porcine tubulins (1); format: biochemical; parameters: purchased Cytoskeleton Inc. BK006P; details: compound 0.91 μM; absorbance at 340 nm, 37° C.; FIG. 1 and FIG. 2
porcine tubulin, sequence (P02554 whole entry): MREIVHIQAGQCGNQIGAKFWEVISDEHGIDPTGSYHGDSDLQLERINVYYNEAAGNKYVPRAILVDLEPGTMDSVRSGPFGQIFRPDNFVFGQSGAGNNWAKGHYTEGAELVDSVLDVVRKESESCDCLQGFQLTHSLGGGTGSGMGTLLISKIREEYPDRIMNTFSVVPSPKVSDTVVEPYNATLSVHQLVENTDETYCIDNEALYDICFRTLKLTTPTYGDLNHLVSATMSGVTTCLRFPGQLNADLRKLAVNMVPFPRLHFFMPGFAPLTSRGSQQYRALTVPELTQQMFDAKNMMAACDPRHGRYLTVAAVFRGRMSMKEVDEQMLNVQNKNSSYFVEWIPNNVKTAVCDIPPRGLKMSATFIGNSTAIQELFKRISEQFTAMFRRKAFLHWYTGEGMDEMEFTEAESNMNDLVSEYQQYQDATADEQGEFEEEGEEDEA
porcine tubulin, sequence (P02550 whole entry): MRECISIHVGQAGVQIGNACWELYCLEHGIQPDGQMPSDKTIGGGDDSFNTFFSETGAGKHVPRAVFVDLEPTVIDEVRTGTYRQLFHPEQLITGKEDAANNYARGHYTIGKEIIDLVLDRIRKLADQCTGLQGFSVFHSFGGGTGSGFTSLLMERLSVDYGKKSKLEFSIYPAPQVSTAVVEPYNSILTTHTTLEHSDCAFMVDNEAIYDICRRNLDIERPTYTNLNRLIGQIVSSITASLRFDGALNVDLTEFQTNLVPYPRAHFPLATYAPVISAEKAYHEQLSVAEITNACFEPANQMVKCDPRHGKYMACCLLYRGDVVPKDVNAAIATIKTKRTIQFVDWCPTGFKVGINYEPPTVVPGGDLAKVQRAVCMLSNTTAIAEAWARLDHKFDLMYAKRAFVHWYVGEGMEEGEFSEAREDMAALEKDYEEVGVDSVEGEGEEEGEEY

[4] = system: SU-DHL-1 cells; test: Cellular toxicity test (1), CellTiter-Glo, SU-DHL-1; format: cell-based; details: Homo sapiens, 96 h, cultured 4 days, cell viability
Protocol: (§1) SU-DHL-1 cells (American Type Culture Collection, hereinafter, ATCC) and Karpas-299 cells (European Collection of Authenticated Cell Cultures, hereinafter, ECACC), which are human lymphoma cell lines, were cultured in RPMI 1640 (GIBCO) containing 10% fetal bovine serum (MP Biomedicals) (hereinafter, referred to as the “culture medium” in this test). SU-DHL-1 cells and Karpas-299 cells were prepared to be 2×10^6 cells/mL in the culture medium, and were added to a 96 well microplate for cell culturing in an amount of 50 μL for each well. Compounds of Examples or hemiasterlin 4 times diluted with the culture medium in 8 stages were added to the microplate in an amount of 50 μL for each well. To wells to which the test substance was not added, the culture medium was added in an amount of 50 μL for each well. These were cultured at 37 degree under 5% CO2 for 4 days. After culturing, the microplate was taken out from the incubator, and was left at rest at room temperature for 10 minutes. To each well, 50 μL of CellTiter-Glo Luminescent Cell Viability Assay (Promega) was added, and the resultant mixture was stirred. This mixture was incubated at a dark place for 20 minutes. Using a microplate luminometer, luminescence at each well was measured, thereby calculating the cell viability for each concentration of the test substance. From the cell viability, the IC50 value of the test substance was determined.
(§2) The IC50 value was calculated by the following formula: IC50(nM)=antilog(LOG10(a/b)×(e−d)/(c−d)+LOG10b) • a: concentration a of test substance • b: concentration b of test substance • c: cell viability upon adding test substance with concentration a • d: cell viability upon adding test substance with concentration b • e: intermediate value between maximum and minimum among cell viabilities upon • adding test substances with different concentrations (a and b are concentrations crossing the cell viability e, and a>b is indicated).
(§3) The cell viability at each concentration was calculated by the following formula: Cell Viability (%)=a′/b′×100 • a′: mean value of luminescence amount of wells to which test substance was added (n=6) • b′: mean value of luminescence amount of wells to which test substance was not added (n=6) • (n represents the number of evaluations performed per test substance concentration).

[5] = system: Karpas-299 cells; test: Cellular toxicity test (1), CellTiter-Glo, Karpas-299; format: cell-based; details: Homo sapiens, 96 h, cultured 4 days, cell viability
Protocol: as §1, §2, §3

[6] = system: SK-BR-3 cells; test: Cellular toxicity test (2), CellTiter-Glo, SK-BR-3; format: cell-based; details: Homo sapiens, 72 h, cultured 3 days, cell viability
Protocol: as §2, §3
SK-BR-3 cells (ATCC), which are a human breast cancer cell line, were cultured in McCoy's 5A (GIBCO) containing 10% fetal bovine serum (MP Biomedicals) (hereinafter, referred to as the “culture medium” in this test). SK-BR-3 cells were prepared to be 2×10^6 cells/mL in the culture medium, added to a 96 well microplate for cell culturing in an amount of 50 μL for each well, and cultured at 37 degree under 5% CO2 overnight, and then, compounds of Examples or hemiasterlin 4 times diluted with the culture medium in 8 stages were added to the microplate in an amount of 50 μL for each well. To wells to which the test substance was not added, the culture medium was added in an amount of 50 μL for each well. These were cultured at 37 degree under 5% CO2 for 3 days. After culturing, the microplate was taken out from the incubator, and was left at rest at room temperature for 10 minutes. 50 μL of CellTiter-Glo Luminescent Cell Viability Assay (Promega) was added, and the resultant mixture was stirred. This mixture was incubated at a dark place for 20 minutes. Using a microplate luminometer, luminescence at each well was measured, thereby calculating the cell viability for each concentration of the test substance. The IC50 value was calculated in accordance with the method described in Test Example 3.

Q: Which results are given for CCOC(=O)[C@@H](CCC(=O)O)NC(=O)/C(C)=C/[C@H](C(C)C)N(C)C(=O)[C@@H](NC(=O)[C@@H](NC)C(C)(C)c1cn(C)c2ccccc12)C(C)(C)C [Example 14]?
A: half-life ([1]; mouse, plasma, 1 mg/kg, single intravenous administration): < 30 min; Blood concentration of Example 14 ([1]; single intravenous administration of Example 14, 0.5 hr, animal 1): n.d. (less than the detection limit value (0.5 ng/mL)); Blood concentration of Example 14 ([1]; single intravenous administration of Example 14, 0.5 hr, animal 2): n.d. (less than the detection limit value (0.5 ng/mL)); Blood concentration of Example 14 ([1]; single intravenous administration of Example 14, 0.5 hr, animal 3): n.d. (less than the detection limit value (0.5 ng/mL)); Blood concentration of Example 14, mean ([1]; single intravenous administration of Example 14, 0.5 hr): n.d. (less than the detection limit value (0.5 ng/mL)); Blood concentration of Example 14 ([1]; single intravenous administration of Example 14, 2 hr, animal 1): n.d. (less than the detection limit value (0.5 ng/mL)); Blood concentration of Example 14 ([1]; single intravenous administration of Example 14, 2 hr, animal 2): n.d. (less than the detection limit value (0.5 ng/mL)); Blood concentration of Example 14 ([1]; single intravenous administration of Example 14, 2 hr, animal 3): n.d. (less than the detection limit value (0.5 ng/mL)); Blood concentration of Example 14, mean ([1]; single intravenous administration of Example 14, 2 hr): n.d. (less than the detection limit value (0.5 ng/mL)); Blood concentration of Example 14 ([1]; single intravenous administration of Example 14, 6 hr, animal 1): n.d. (less than the detection limit value (0.5 ng/mL)); Blood concentration of Example 14 ([1]; single intravenous administration of Example 14, 6 hr, animal 2): n.d. (less than the detection limit value (0.5 ng/mL)); Blood concentration of Example 14 ([1]; single intravenous administration of Example 14, 6 hr, animal 3): n.d. (less than the detection limit value (0.5 ng/mL)); Blood concentration of Example 14, mean ([1]; single intravenous administration of Example 14, 6 hr): n.d. (less than the detection limit value (0.5 ng/mL)); Blood concentration of Example 14 ([1]; single intravenous administration of Example 14, 24 hr, animal 1): n.d. (less than the detection limit value (0.5 ng/mL)); Blood concentration of Example 14 ([1]; single intravenous administration of Example 14, 24 hr, animal 2): n.d. (less than the detection limit value (0.5 ng/mL)); Blood concentration of Example 14 ([1]; single intravenous administration of Example 14, 24 hr, animal 3): n.d. (less than the detection limit value (0.5 ng/mL)); Blood concentration of Example 14, mean ([1]; single intravenous administration of Example 14, 24 hr): n.d. (less than the detection limit value (0.5 ng/mL)); Papp [2]: 4.5 ×10⁻⁶ cm/s; activity for inhibiting microtubule polymerization [3]: exhibited activities for inhibiting microtubule polymerization; also recorded: exhibited polymerization inhibitory activity concentration-dependently; IC50 [4]: 0.24 nM; IC50 [5]: 0.12 nM; IC50 [6]: 1.03 nM
